Legend:
recombinant PDK-1 = molecular target: T1, recombinant PDK-1 (Homo sapiens, UniProt O15530); assay: PDK-1 kinase activity assay (PDK-tide phosphorylation, phosphocellulose filter plates); format: biochemical; conditions: at Km for ATP and PDKtide saturation; read-out: inhibits PDK-1, EC50
T1 construct: purchased UBI
T1 sequence (O15530 1-556): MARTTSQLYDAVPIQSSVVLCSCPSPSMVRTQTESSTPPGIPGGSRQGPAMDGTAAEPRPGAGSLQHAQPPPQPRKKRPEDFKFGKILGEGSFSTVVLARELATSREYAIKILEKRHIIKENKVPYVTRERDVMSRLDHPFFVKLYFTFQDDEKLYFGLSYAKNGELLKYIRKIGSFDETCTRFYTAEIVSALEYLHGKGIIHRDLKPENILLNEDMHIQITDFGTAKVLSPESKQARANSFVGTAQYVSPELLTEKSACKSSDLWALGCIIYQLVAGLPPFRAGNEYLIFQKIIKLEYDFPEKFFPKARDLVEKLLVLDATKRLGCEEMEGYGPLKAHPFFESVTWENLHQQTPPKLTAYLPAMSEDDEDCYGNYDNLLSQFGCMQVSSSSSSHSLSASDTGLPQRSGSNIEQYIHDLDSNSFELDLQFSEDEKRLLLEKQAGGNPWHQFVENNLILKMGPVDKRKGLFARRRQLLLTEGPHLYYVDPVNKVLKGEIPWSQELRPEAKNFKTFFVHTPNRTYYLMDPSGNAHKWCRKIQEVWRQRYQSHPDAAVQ
Experimental: (§1) The assay described measures the phosphorylation of the PDK1 consensus phosphorylation site PDK-tide peptide ([…]; cat # 14452, lot 23876U) by recombinant PDK-1 (UBI) at Km for ATP and PDKtide saturation using phosphocellulose membrane filter plates. Phosphorylation of the p70S6 kinase substrate by recombinant p70S6 kinase is also measured similarly.

[1] = tested on: xenografts from the androgen-independent prostate carcinoma cell line PC3; assay: In vivo tumor inhibition, PC3 xenografts; design: species or system athymic nude mice
Excerpt: (§2) Approximately 5×10^6 tumor cells are implanted subcutaneously into the flank of athymic nude mice (Harlan, Indianapolis, Ind.). Treatment of tumors begins when the tumors reach 100 mm^3 and continues for 21 consecutive days twice per day PO. Body weight and tumor size are monitored weekly or twice weekly.

4EBP1 = assay: Phosphorylation of 4EBP1 (western blot, AKT pathway readout); format: cell-based; conditions: readout of AKT pathway activity
Experimental: (§3) Protein lysates were prepared by incubation in RIPA Buffer (50 mM Tris-HCl, 150 mM NaCl, 1 mM EDTA, 1% NP40, 0.25% Sodium deoxycholate, 1 mM sodium fluoride, 1 mM sodium orthovanadate and Complete™ protease inhibitors (Roche Cat# 10019600) for one hour with rotation. The lysate was then centrifuged (10 minutes@ 10,000 rpm), supernatant harvested and protein concentrations were determined using the Bio-Rad DC Protein Assay (cat# 500-0122). Proteins were separated by SDS-PAGE using 4-20% tris-glycine gels (Invitrogen, cat# EC6028) and transferred to Hyper™-bond PVDF membrane (Amersham, cart# rpn303F). All primary antibodies were incubated overnight at 4° C. in 5% milk/1×PBS (Gibco, cat# 70011-044) solution. Horseradish peroxidase (HRP) linked secondary antibodies (Santa Cruz, cat# sc-2055, sc-2054) were incubated for a minimum of two hours prior to detection. Specific signal was determined by the Lumi-Imager™ and Lumi-Analyst software to define changes in protein expression and phosphorylation. […]

recombinant p70S6 kinase = recombinant p70S6 kinase (Homo sapiens, UniProt P23443); assay: p70S6 kinase activity assay; format: biochemical; conditions: read-out: inhibits p70S6kinase, EC50
recombinant p70S6 kinase, sequence (P23443 whole entry): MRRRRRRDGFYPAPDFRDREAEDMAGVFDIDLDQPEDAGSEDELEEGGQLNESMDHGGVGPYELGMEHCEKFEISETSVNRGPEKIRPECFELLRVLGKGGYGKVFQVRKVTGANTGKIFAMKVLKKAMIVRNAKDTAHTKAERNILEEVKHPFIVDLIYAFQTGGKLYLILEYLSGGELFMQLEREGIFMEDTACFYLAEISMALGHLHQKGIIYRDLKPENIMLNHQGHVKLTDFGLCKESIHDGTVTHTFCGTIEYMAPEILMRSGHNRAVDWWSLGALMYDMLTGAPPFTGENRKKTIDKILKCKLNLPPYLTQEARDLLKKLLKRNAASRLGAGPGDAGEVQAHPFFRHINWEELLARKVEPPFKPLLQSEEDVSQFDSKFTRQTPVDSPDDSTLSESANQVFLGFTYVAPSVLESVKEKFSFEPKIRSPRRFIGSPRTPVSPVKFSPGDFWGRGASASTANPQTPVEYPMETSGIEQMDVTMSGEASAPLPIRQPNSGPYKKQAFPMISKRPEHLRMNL
Experimental: as §1

[2] = tested on: human cancer cell lines derived from colon; assay: Apoptosis assay (Cell Death Detection ELISA), colon; format: cell-based
Experimental: Both HCT116 colon carcinoma (cat#CCL-247) and U87MG glioblastoma (cat#HTB-14) cell lines were obtained from the American Type Culture Collection (ATCC). The standard growth media differed for each cell line but all were grown in 10% heat-inactivated FBS (Invitrogen cat# 10082-147), 37° C., 5% CO2 atmosphere and in a humidified chamber. Cell passage was completed one to two times per week using 0.25% trypsin/1 mM EDTA (Invitrogen, cat# 25200-056) solution maintaining cells in log phase growth. U87MG cells were cultured in DMEM media (Invitrogen cat# 11965-092), 1 mM non-essential amino acids (NEAA), and 0.1 mM Sodium Pyruvate. HCT116 cells were grown in McCoy's 5A Modified media (Invitrogen, cat# 16600-082), 0.15% sodium bicarbonate, 0.1 mM HEPES, 25 mM D-glucose and 0.1 mM sodium Pyruvate.
(§4) Apoptosis assays were executed using the Cell Death Detection ELISAPIUS (Roche, 1774425) assay kit strictly following the enclosed protocol.

GSK3β = assay: Phosphorylation of GSK3β (western blot, AKT pathway readout); format: cell-based; conditions: readout of AKT pathway activity
Experimental: as §3

[3] = tested on: GSK3β ser9 phosphorylation; assay: GSK3β ser9 phosphorylation in xenograft tissues of treated mice; format: in vivo; conditions: human tumor xenograft-bearing mice
Experimental: as §3
Approximately 5×10^6 tumor cells are implanted subcutaneously into the flank of athymic nude mice (Harlan, Indianapolis, Ind.). […] Body weight and tumor size are monitored weekly or twice weekly.

[4] = tested on: forkhead transcription factor AFX; assay: Phosphorylation of AFX (western blot, AKT pathway readout); format: cell-based; conditions: readout of AKT pathway activity
Experimental: as §3

[5] = tested on: human cancer cell lines derived from prostate (both androgen-dependent and independent cell lines); assay: Apoptosis assay (Cell Death Detection ELISA), prostate; format: cell-based
Excerpt: as §4

ribosomal protein S6 = assay: Phosphorylation of ribosomal protein S6 (western blot, AKT pathway readout); format: cell-based; conditions: readout of AKT pathway activity
Experimental: as §3

[6] = tested on: human cancer cell lines derived from lung; assay: Apoptosis assay (Cell Death Detection ELISA), lung; format: cell-based
Excerpt: as §4

[7] = tested on: human cancer cell lines from non-Hodgkin's lymphoma; assay: Apoptosis assay (Cell Death Detection ELISA), non-Hodgkin's lymphoma; format: cell-based
Excerpt: as §4

[8] = tested on: U87MG glioblastoma xenografts; assay: In vivo tumor inhibition, U87MG xenografts; design: species or system athymic nude mice
Excerpt: as §2

[9] = tested on: HCT116 colon cancer xenografts; assay: In vivo tumor inhibition, HCT116 xenografts; design: species or system athymic nude mice
Excerpt: as §2

Cn1cc(C2=C(c3cn(C4CCNCC4)c4ccccc34)C(=O)NC2=O)c2ccccc21 [Compound 1]
EC50 (recombinant PDK-1): 370 nM | anti-tumor efficacy [1]: has been demonstrated | phosphorylation of 4EBP1 (4EBP1): suppresses phosphorylation | EC50 (recombinant p70S6 kinase): < 500 nM | induction of apoptosis [2]: induces apoptosis | phosphorylation of GSK3β (GSK3β): suppresses phosphorylation | GSK3β ser9 phosphorylation in xenograft tissues ([3]; including an androgen-independent prostate carcinoma cell line): suppresses GSK3β ser9 phosphorylation | duration of suppression of GSK3β ser9 phosphorylation post dosing ([3]; post dosing): up to 8 hours | phosphorylation of the forkhead transcription factor AFX [4]: suppresses phosphorylation | induction of apoptosis [5]: induces apoptosis | phosphorylation of ribosomal protein S6 (ribosomal protein S6): suppresses phosphorylation | induction of apoptosis [6]: induces apoptosis | induction of apoptosis [7]: induces apoptosis | anti-tumor efficacy [8]: has been demonstrated | anti-tumor efficacy [9]: has been demonstrated

From patent publication US20060281787A1, “Bisindolyl maleimides useful for treating prostate cancer and akt-mediated diseases” (priority 2003, published 2006)
